Data set [1] can be described thus: Saracatinib drug levels in mouse brain, plasma and CSF (LC/MS/MS). The data set is classed as in vivo. The conditions noted are these: 5 mg/kg/d; for peak CSF level / trough CSF level: one pooled sample. Here is the method:
Data are mean±sem for separate mice for all points except CSF where samples pooled.
In an initial cohort after 6 doses, samples were collected 30-60 minutes after dosing to obtain a peak level (FIG. 6). Drug levels were measured with an LC/MS/MS method validated for clinical samples.

The test system of data set [2] is Fyn (phospho-Src pY416). Description: pY416 and Fyn immunoblot of hippocampus of WT mice fed AZD0530 diet. The data set is classed as in vivo, mouse. The settings on record: diet pellets 5 mg/kg/d, 9 months, vs Vehicle. The source says: FIGS. 17A-17C illustrate reduced Fyn activation in mice fed AZD0530-containing food. FIG. 17A: Representative blots using anti-pY416, Fyn, and 8-actin antibodies of the RIPA-soluble fraction of the hippocampus of WT mice treated with Vehicle or AZD0530 for 9 months. FIG. 17B: Quantification of pY416-immunoreactive bands from the immunoblot from FIG. 17A by densitometric analysis. The bands indicated by an arrow in FIG. 17A were quantified. The band intensity was normalized to that of 8-actin and then normalized to the mean of the Vehicle-treated WT group. Data are represented as mean±SEM. n=6/group. *p<0.05; t-test. FIG. 17C: Quantification of Fyn-immunoreactive bands from the immunoblot in FIG. 17A by densitometric analysis. The band intensity was normalized to that of β-actin and then normalized to the mean of the Vehicle-treated WT group. Data are represented as mean±SEM. n=6/group. t-test.
To generate chow containing chow for chronic dosing, the compound was incorporated into purified diet pellets by Research Diets, Inc. by dissolving the compound in a solution of 0.5% w/v Hydroxypropylmethylcellulose/0.1% w/v polysorbate 80 at 1.429 mg/ml. […] The dosage of the drug in the food was calculated to take into account the average amount of food eaten by a mouse in a single day per kg of weight and adjusted to be equivalent to ingesting 5 mg/kg per day. […]
A general note: A western blot detects proteins with antibodies after separation by electrophoresis.

With `CN1CCN(CCOc2cc(OC3CCOCC3)c3c(Nc4c(Cl)ccc5c4OCO5)ncnc3c2)CC1` [saracatinib, N-(5-chloro-benzo[d][1,3]dioxol-4-yl)-7-(2-(4-methylpiperazin-1-yl)ethoxy)-5-(tetrahydro-2H-pyran-4-yloxy)quinazolin-4-amine], in data set [1], the peak brain level turned out to be 50 nM, the “peak CSF level” value amounted to 13 nM and the “trough CSF level” value came to 8.9 nM. In data set [1] (5 mg/kg/day), this compound yielded a trough brain level of 19 to 46 nM. Besides, in data set [1] (as free base), the peak brain level turned out to be 27 ng/g, the “peak CSF level” value is 7 ng/mL and the “trough CSF level” value amounted to 4.6 ng/mL. In addition, the “total Fyn levels in hippocampus” value in data set [2] is “no difference”.

The values above are taken from patent US11241434B2, “Compositions and methods for improving cognition in a subject” (Yale University, priority 2013, dated 2022).
